According to patent US20260042764A1, “COMPOSITIONS AND METHODS FOR INHIBITION OF KRAS” (TheRas, Inc., priority 2022, published 2026):

Key:
[1] = target: T1, Avi-KRAS G12D (1-169) GppNHp/RAF1 RBD-3xFLAG (52-151) (Homo sapiens, UniProt P01116, G12D); assay: Raf1-KRAS G12D-GppNHP disruption HTRF assay (Biological Example 1); type: binding; conditions: KRAS G12D-GppNHp/RAF1 RBD HTRF
T1 construct: Avi-KRAS G12D (1-169)
How it was run: (§1)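 Protein mix, 1 h RT, 700 rpm; reagent mix, 1 h RT, 700 rpm; HTRF read. Buffer Tris pH 7.5/NaCl/MgCl2/BSA/Tween, 10% DMSO. Output % activity, DMSO = 100%.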

[2] = test system: GP2d cells (KRAS G12D); assay: Cell-based pERK HTRF assay in GP2d cell (Biological Example 2); conditions: GP2d (KRAS G12D) cells
How it was run: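 GP2d (KRAS G12D) cells were plated in DMEM/10% FBS and treated the next day for 60 min with compounds. Dosing used 9-point half-log series starting at 1 μM or 100 nM in 0.25% DMSO. Lysates were read by HTRF pERK (d2/Eu cryptate antibodies) after 4–24 h at room temperature, with excitation at 320 nm and emission at 615 nm.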

[3] = target: T2, Avi-KRAS G12V (1-169) GppNHp/RAF1 RBD-3xFLAG (52-151) (Homo sapiens, UniProt P01116, G12V); assay: Raf1-KRAS G12V-GppNHP disruption HTRF assay (Biological Example 1); type: binding; conditions: KRAS G12V-GppNHp/RAF1 RBD HTRF
T2 construct: Avi-KRAS G12V (1-169)
How it was run: as §1

[4] = target: T3, Avi-KRAS WT (2-169) GTP/RAF1 RBD-3xFLAG (51-131) (Homo sapiens, UniProt P01116); assay: Raf1-KRAS WT-GTP disruption HTRF assay (Biological Example 3); type: binding; conditions: KRAS WT, GTP-loaded
T3 construct: Avi-KRAS WT (2-169)
How it was run: (§2)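 Each KRAS-GTP/RAF1 RBD complex at 50 nM, with 75 nM 3xFLAG-RAF1 RBD (51-131)-Avi, in 50 mM Tris pH 7.5, 100 mM NaCl, 5 mM MgCl2, 0.1% BSA, 0.01% Tween 20, 10% DMSO. Compounds titrated from 30 μM, 10-point 3x series; 1 h at room temperature with shaking. HTRF read, activity as percent of DMSO.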

[5] = target: T4, Avi-KRAS G12R (1-169) GppNHp/RAF1 RBD-3xFLAG (52-151) (Homo sapiens, UniProt P01116, G12R); assay: Raf1-KRAS G12R-GppNHP disruption HTRF assay (Biological Example 1); type: binding; conditions: KRAS G12R-GppNHp/RAF1 RBD HTRF
T4 construct: Avi-KRAS G12R (1-169)
How it was run: as §1

[6] = target: T5, Avi-KRAS G12C (2-169) GTP/RAF1 RBD-3xFLAG (51-131) (Homo sapiens, UniProt P01116, G12C); assay: Raf1-KRAS G12C-GTP disruption HTRF assay (Biological Example 3); type: binding; conditions: KRAS G12C, GTP-loaded
T5 construct: Avi-KRAS G12C (2-169)
How it was run: as §2

T5 sequence (P01116 2-169 isoform P01116-2 G12C): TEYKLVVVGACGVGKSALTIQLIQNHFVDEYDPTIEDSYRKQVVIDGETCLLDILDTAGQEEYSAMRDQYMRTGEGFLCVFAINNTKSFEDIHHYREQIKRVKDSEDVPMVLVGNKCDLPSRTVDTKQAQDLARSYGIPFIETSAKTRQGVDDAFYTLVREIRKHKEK
T3 sequence (P01116 2-169 isoform P01116-2): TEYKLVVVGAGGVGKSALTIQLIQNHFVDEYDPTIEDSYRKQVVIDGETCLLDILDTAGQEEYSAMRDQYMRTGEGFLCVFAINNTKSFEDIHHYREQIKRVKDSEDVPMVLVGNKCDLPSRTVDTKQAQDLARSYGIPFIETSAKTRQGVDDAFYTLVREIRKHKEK
T2 sequence (P01116 1-169 isoform P01116-2 G12V): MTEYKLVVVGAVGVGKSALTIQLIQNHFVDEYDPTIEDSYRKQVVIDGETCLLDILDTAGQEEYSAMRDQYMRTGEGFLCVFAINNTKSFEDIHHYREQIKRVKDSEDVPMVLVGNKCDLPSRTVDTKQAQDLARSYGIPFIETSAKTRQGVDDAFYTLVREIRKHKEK
T1 sequence (P01116 1-169 isoform P01116-2 G12D): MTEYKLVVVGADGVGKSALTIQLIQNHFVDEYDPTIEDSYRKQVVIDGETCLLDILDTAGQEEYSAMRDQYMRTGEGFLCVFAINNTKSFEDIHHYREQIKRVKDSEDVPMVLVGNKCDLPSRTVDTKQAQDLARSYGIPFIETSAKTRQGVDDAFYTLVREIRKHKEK
T4 sequence (P01116 1-169 isoform P01116-2 G12R): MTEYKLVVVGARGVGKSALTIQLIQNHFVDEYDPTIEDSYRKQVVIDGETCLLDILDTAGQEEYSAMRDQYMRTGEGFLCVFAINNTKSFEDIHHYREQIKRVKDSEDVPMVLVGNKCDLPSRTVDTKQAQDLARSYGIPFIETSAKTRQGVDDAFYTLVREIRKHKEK

| SMILES | IC50 [1] [nM] | IC50 ([2]; GP2d) [nM] | IC50 ([2]; GP2d, pERK HTRF) [nM] | IC50 [3] [nM] | IC50 [4] [nM] | IC50 [5] [nM] | IC50 [6] [nM] | IC50 ([2]; pERK HTRF) [nM] | IC50 [2] [nM] |
| --- | --- | --- | --- | --- | --- | --- | --- | --- | --- |
| CCN(c1nc(OC[C@@]23CCCN2C[C@H](F)C3)nc2c(F)c(-c3ccc(F)c4sc(N)c(C#N)c34)c(C(F)(F)F)cc12)[C@@H]1CC(=O)N(C)C1 [Compound 520] | 100 to 1000 | < 100 | < 100 | 100 to 1000 | 100 to 1000 | 100 to 1000 | 100 to 1000 | – | – |
| CCC(=O)N1CC[C@@H](N(CC)c2nc(OC[C@@]34CCCN3C[C@H](F)C4)nc3c(F)c(-c4ccc(F)c5sc(N)c(C#N)c45)c(C(F)(F)F)cc23)[C@H]1C (atropisomer, axis not shown) [Compound 523] | < 100 | < 100 | – | < 100 | ≤ 100 | < 100 | ≤ 100 | < 100 | – |
| CCN(c1nc(OC[C@@]23CCCN2C[C@H](F)C3)nc2c(F)c(-c3ccc(F)c4sc(N)c(C#N)c34)c(C(F)(F)F)cc12)[C@H]1CCN(C(=O)C(C)C)C1 (atropisomer, axis not shown) [Compound 468] | > 10000 | – | – | > 10000 | – | > 10000 | – | 100 to 1000 | – |
| CCN(c1nc(OC[C@@]23CCCN2C[C@H](F)C3)nc2c(F)c(-c3ccc(F)c4sc(N)c(C#N)c34)c(C(F)(F)F)cc12)[C@@H]1C[C@H]2CCC(=O)N2C1 (atropisomer, axis not shown) [Compound 532] | 100 to 1000 | < 100 | < 100 | 100 to 1000 | 100 to 1000 | 100 to 1000 | 100 to 1000 | – | – |
| CCN(c1nc(OC[C@@]23CCCN2C[C@H](F)C3)nc2c(F)c(-c3ccc(F)c4sc(N)c(C#N)c34)c(C(F)(F)F)cc12)[C@@H]1C[C@@H](C)N(C(C)=O)C1 (atropisomer, axis not shown) [Compound 527] | 100 to 1000 | < 100 | < 100 | 100 to 1000 | 100 to 1000 | 100 to 1000 | 100 to 1000 | – | – |
| CCN(c1nc(OC[C@@]23CCCN2C[C@H](F)C3)nc2c(F)c(-c3ccc(F)c4sc(N)c(C#N)c34)c(C(F)(F)F)cc12)[C@H]1CCN(C(=O)N(C)C)C1 (atropisomer, axis not shown) [Compound 540, (3S)-3-[[7-(2-amino-3-cyano-7-fluoro-benzothiophen-4-yl)-8-fluoro-2-[[(2R,8S)-2-fluoro-1,2,3,5,6,7-hexahydropyrrolizin-8-yl]methoxy]-6-(trifluoromethyl)quinazolin-4-yl]-ethyl-amino]-N,N-dimethyl-pyrrolidine-1-carboxamide] | – | < 100 | – | – | 100 to 1000 | – | ≤ 100 | – | – |
| CCN(c1nc(OC[C@@]23CCCN2C[C@H](F)C3)nc2c(F)c(-c3ccc(F)c4sc(N)c(C#N)c34)c(C(F)(F)F)cc12)[C@@H]1CCN(C(=O)C2CC2)[C@@H]1C (atropisomer, axis not shown) [Compound 524] | < 100 | < 100 | – | < 100 | ≤ 100 | < 100 | 100 to 1000 | < 100 | – |
| CCN(c1nc(OC[C@@]23CCCN2C[C@H](F)C3)nc2c(F)c(-c3ccc(F)c4sc(N)c(C#N)c34)c(C(F)(F)F)cc12)[C@H]1CCN(C(=O)c2ccon2)C1 (atropisomer, axis not shown) [Compound 554] | < 100 | < 100 | < 100 | < 100 | 100 to 1000 | < 100 | 100 to 1000 | – | – |
| N#Cc1c(N)sc2c(F)ccc(-c3c(C(F)(F)F)cc4c(N5CCn6nc(N7CCOCC7)cc6C5)nc(OC[C@@]56CCCN5C[C@H](F)C6)nc4c3F)c12 [Compound 485] | 1000 to 10000 | – | < 100 | 1000 to 10000 | – | 1000 to 10000 | – | – | – |
| CN(C)C(=O)c1nn2c(c1Cl)CN(c1nc(OC[C@@]34CCCN3C[C@H](F)C4)nc3c(F)c(-c4ccc(F)c5sc(N)c(C#N)c45)c(C(F)(F)F)cc13)CC2 [Compound 517] | < 100 | < 100 | < 100 | < 100 | 100 to 1000 | < 100 | 100 to 1000 | – | – |
| CCN(c1nc(OC[C@@]23CCCN2C[C@H](F)C3)nc2c(F)c(-c3ccc(F)c4sc(N)c(C#N)c34)c(C(F)(F)F)cc12)[C@H]1CCN(C(=O)OC)C1 (atropisomer, axis not shown) [Compound 541, methyl(3S)-3-[[7-(2-amino-3-cyano-7-fluoro-benzothiophen-4-yl)-8-fluoro-2-[[(2R,8S)-2-fluoro-1,2,3,5,6,7-hexahydropyrrolizin-8-yl]methoxy]-6-(trifluoromethyl)quinazolin-4-yl]-ethyl-amino]pyrrolidine-1-carboxylate] | < 100 | – | – | < 100 | 100 to 1000 | < 100 | ≤ 100 | < 100 | < 100 |
| Cc1cc2n(n1)CCN(c1nc(OCC34CCCN3CC(F)C4)nc3c(F)c(-c4ccc(F)c5sc(N)c(C#N)c45)c(C(F)(F)F)cc13)C2 (stereo not drawn) [Compound 484] | 1000 to 10000 | – | < 100 | 1000 to 10000 | – | 1000 to 10000 | – | – | – |
| CCN(c1nc(OC[C@@]23CCCN2C[C@H](F)C3)nc2c(F)c(-c3ccc(F)c4sc(N)c(C#N)c34)c(C(F)(F)F)cc12)[C@H]1C[C@H](C)N(C(=O)COC)C1 (atropisomer, axis not shown) [Compound 538] | < 100 | < 100 | < 100 | < 100 | 100 to 1000 | < 100 | ≤ 100 | – | – |
| CCN(c1nc(OC[C@@]23CCCN2C[C@H](F)C3)nc2c(F)c(-c3ccc(F)c4sc(N)c(C#N)c34)c(C(F)(F)F)cc12)[C@H]1C[C@@H]2COC(=O)N2C1 (atropisomer, axis not shown) [Compound 519] | < 100 | < 100 | < 100 | 100 to 1000 | 100 to 1000 | < 100 | 100 to 1000 | – | – |
| CCN1C[C@@H](N(CC)c2nc(OC[C@@]34CCCN3C[C@H](F)C4)nc3c(F)c(-c4ccc(F)c5sc(N)c(C#N)c45)c(C(F)(F)F)cc23)CC1=O [Compound 529, 2-amino-4-(4-(ethyl((S)-1-ethyl-5-oxopyrrolidin-3-yl)amino)-8-fluoro-2-(((2R,7aS)-2-fluorotetrahydro-1H-pyrrolizin-7a(5H)-yl)methoxy)-6-(trifluoromethyl)quinazolin-7-yl)-7-fluorobenzo[b]thiophene-3-carbonitrile] | < 100 | < 100 | < 100 | < 100 | ≤ 100 | < 100 | ≤ 100 | – | – |
| CCN(c1nc(OC[C@@]23CCCN2C[C@H](F)C3)nc2c(F)c(-c3ccc(F)c4sc(N)c(C#N)c34)c(C(F)(F)F)cc12)[C@H]1C[C@H]2CN(C)C(=O)N2C1 (atropisomer, axis not shown; (aS)) [Compound 543, 2-amino-4-((S)-4-(ethyl((6S,7aS)-2-methyl-3-oxohexahydro-1H-pyrrolo[1,2-c]imidazol-6-yl)amino)-8-fluoro-2-(((2R,7aS)-2-fluorotetrahydro-1H-pyrrolizin-7a(5H)-yl)methoxy)-6-(trifluoromethyl)quinazolin-7-yl)-7-fluorobenzo[b]thiophene-3-carbonitrile] | < 100 | < 100 | < 100 | < 100 | ≤ 100 | < 100 | ≤ 100 | – | – |
| CCOC(=O)N1CC[C@H](N(CC)c2nc(OC[C@@]34CCCN3C[C@H](F)C4)nc3c(F)c(-c4ccc(F)c5sc(N)c(C#N)c45)c(C(F)(F)F)cc23)C1 [Compound 467] | < 100 | – | < 100 | < 100 | – | < 100 | – | – | – |
| CCN(c1nc(OC[C@@]23CCCN2C[C@H](F)C3)nc2c(F)c(-c3ccc(F)c4sc(N)c(C#N)c34)c(C(F)(F)F)cc12)[C@H]1C[C@H](C)N(C(=O)C2CC2)C1 [Compound 470] | < 100 | – | < 100 | < 100 | – | < 100 | – | – | – |
| CCN(c1nc(OC[C@@]23CCCN2C[C@H](F)C3)nc2c(F)c(-c3ccc(F)c4sc(N)c(C#N)c34)c(C(F)(F)F)cc12)[C@H]1CCS(=O)(=O)C1 (atropisomer, axis not shown) [Compound 492] | < 100 | – | – | 100 to 1000 | – | < 100 | – | < 100 | – |
